Results from ChEMBL document CHEMBL1134273, “Design, synthesis, and characterization of the antitumor activity of novel ceramide analogues” (J Med Chem, 2001).

Assays:
CCRF-CEM [1] = experiment: Percentage increase in caspase-3 activity of CCRF-CEM human T-leukemia cells.; type: functional
CCRF-CEM [2] = experiment: In vitro growth inhibitory effect in human T-cell acute leukemia cells CCRF-CEM; type: functional, cell-based

Structure (SMILES)	IC50 (CCRF-CEM [2])	Increase (CCRF-CEM [1])
CCCCCCCCCCCCC/C=C/[C@@H](O)[C@H](CO)NC(C)=O	31.6 µM	2.8%
CCCCCCCCCCCCCCc1nc(O)nc(O)c1CC	–	1.7%
CCCCCCCCCCCCCCc1nc(S)nc(O)c1CC	–	1.2%

Continued, in another order:

IC50 (CCRF-CEM [2])	Structure (SMILES)	Increase (CCRF-CEM [1])
1.7 µM	CCCCCCCCCCCCCCc1c(O)nc(S)nc1CC	5%
7.9 µM	CCCCCCCCCCCCCCc1c(O)nc(O)nc1CC	8.1%
